The values below come from ChEMBL document CHEMBL1125065, “Synthesis and anti-HIV activity of carbocyclic 2',3'-didehydro-2',3'-dideoxy 2,6-disubstituted purine nucleosides” (J Med Chem, 1990).

≈ marks a conversion by molar mass, not a printed value. Bounds are passed on as bounds.

Data set [1] relates to CCRF-CEM. Description: Percent reduction in p24 gag expression in CEM cells. The format is functional, Homo sapiens.
Data set [2] concerns CCRF-CEM. Description: Inhibitory effect against synthesis of p24 gag protein in CEM cells. The format is functional, Homo sapiens.
For data set [3], the system named is P388. The experiment in a line: Inhibitory concentration of compound for P-388 Leukemia cell culture. Particulars: Mus musculus, read-out: ED50 (the source's name). Format: functional.
The test system of data set [4] is MT2. Description: Inhibitory concentration that reduces formazan production in uninfected MT-2 cells. Particulars: Homo sapiens.
The nature of data set [5]: Therapeutic index for the compound was determined (IC50/EC50). Particulars: read-out: TI.
Data set [6] has as its system MT2. The experiment in a line: Effective concentration that increases formazan production in infected MT-2 cells. Particulars: Homo sapiens. Format: functional, cell-based.

In data set [1], `Cc1cn([C@H]2C[C@H](N=[N+]=[N-])[C@@H](CO)O2)c(=O)[nH]c1=O` [ZIDOVUDINE] yielded a Reduction greater than 99.96%. Moreover, the p24 synthesis in data set [2] came out at 32 ng/mL.
In the case of `Nc1nc(O)c2nnn(C3C=CC(CO)C3)c2n1` (stereo not given), the EC50 in data set [3] is 4.5 µg/mL (≈ 18.1 µM).
Consider `Nc1nc(Cl)c2nnn(C3C=CC(CO)C3)c2n1` (stereo not given), for which the EC50 in data set [3] was found to be 1 µg/mL (≈ 3.75 µM).
In turn, `Nc1nc(N)c2ncn(C3CCC(CO)C3)c2n1` (stereo not given) registered a half-maximal inhibitory concentration (IC50) in data set [4] greater than 100 µg/mL. In addition, the EC50 in data set [3] was found to be 80 µg/mL (≈ 322 µM); in data set [6], 16.7 µg/mL (≈ 67.3 µM). In addition, in data set [5], the selectivity ratio was greater than 5.9.
On to `Nc1nc(N)c2nnn(C3C=CC(CO)C3)c2n1` (stereo not given), for which the EC50 in data set [3] is greater than 100 µg/mL.
Compound `Nc1nc(Cl)c2ncn(C3C=CC(CO)C3)c2n1` (stereo not given) had an IC50 in data set [4] of 6.97 µg/mL (≈ 26.2 µM). Besides, the results for the EC50 in data set [3] and in data set [6] were 75 µg/mL (≈ 282 µM) and 0.4 µg/mL (≈ 1.51 µM), respectively. Besides, the selectivity ratio in data set [5] stood at 17.3.
Consider `Nc1nc(Cl)c2nnn(C3CCC(CO)C3)c2n1` (stereo not given), for which the EC50 in data set [3] turned out to be 18 µg/mL (≈ 67 µM).
`Nc1ccn([C@H]2CC[C@@H](CO)O2)c(=O)n1` [ZALCITABINE] yielded an IC50 in data set [4] of 44 µg/mL (≈ 208 µM). The selectivity ratio in data set [5] came out at 152. Also, the EC50 in data set [6] stood at 0.29 µg/mL (≈ 1.37 µM).
In data set [4], `Nc1nc(N)c2ncn(C3C=CC(CO)C3)c2n1` (stereo not given) came in with an IC50 greater than 125 µg/mL. Further, the values for the EC50 in data set [3] and in data set [6] were greater than 100 µg/mL and 4.7 µg/mL (≈ 19.1 µM), respectively. Further, the selectivity ratio in data set [5] is greater than 26.6.
Consider `Nc1nc(Cl)c2ncn(C3CCC(CO)C3)c2n1` (stereo not given), for which the half-inhibitory concentration (IC50) in data set [4] is greater than 100 µg/mL. The EC50 in data set [3] and in data set [6] was greater than 100 µg/mL in each case.
As to `Nc1nc(N)c2nnn(C3CCC(CO)C3)c2n1` (stereo not given), the EC50 in data set [3] is greater than 100 µg/mL.
`Nc1nc2c(ncn2[C@H]2C=C[C@@H](CO)C2)c(=O)[nH]1` [CARBOVIR] gave an IC50 in data set [4] of 41.8 µg/mL (≈ 169 µM). The EC50 is greater than 100 µg/mL in data set [3] and 0.19 µg/mL (≈ 0.768 µM) in data set [6]. Besides, the selectivity ratio in data set [5] was determined as 220. In addition, the Reduction in data set [1] is greater than 99.97%. Moreover, the p24 synthesis in data set [2] came out at 28 ng/mL.
As for `Nc1nc(O)c2nnn(C3CCC(CO)C3)c2n1` (stereo not given), in data set [3], the EC50 is 51 µg/mL (≈ 204 µM).
`Nc1nc(O)c2ncn(C3CCC(CO)C3)c2n1` (stereo not given) showed an IC50 in data set [4] greater than 100 µg/mL. The EC50 in data set [3] and in data set [6] was greater than 100 µg/mL in each case.

In general, IC50 refers to the midpoint of a concentration-inhibition curve. A high value points to lower potency.
